Test results published in ChEMBL document CHEMBL1201862, “PubChem BioAssay data set” (2004).
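Tested at 5 concentrations; 48 h exposure; 96-well plates; endpoints linearly interpolated, else capped at highest concentration. GI50 marks 50% less growth.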 Activity calls are given as the source filed them. Cut-off read from the data, not from the text of the source: active = GI50 up to about 1.1 µM and inactive = higher.

Legend:
Assay in all cases: growth of human tumour cells (NCI), 48 h
SN12C = system: SN12C
MOLT-4 = system: MOLT-4
UO-31 = system: UO-31
SK-OV-3 = system: SK-OV-3
786-0 = system: 786-0
NCI-H23 = system: NCI-H23
SR = system: SR
SK-MEL-28 = system: SK-MEL-28
KM12 = system: KM12
A549 = system: A549
SF-295 = system: SF-295
SW-620 = system: SW-620
DMS-114 = system: DMS-114
HT-29 = system: HT-29
OVCAR-4 = system: OVCAR-4
KM-20L2 = system: KM-20L2
SNB-78 = system: SNB-78
SK-MEL-2 = system: SK-MEL-2
UACC-257 = system: UACC-257

Measured: GI50

CN(C)CC[N+]1=Nc2cccc3cccc(c23)N1
inactive: SN12C 57.9 µM | MOLT-4 21.6 µM | UO-31 13.9 µM | SK-OV-3 > 100 µM | 786-0 55.1 µM | NCI-H23 > 77.3 µM | SR 19.8 µM | SK-MEL-28 > 100 µM | KM12 > 100 µM | A549 44.1 µM | SF-295 > 100 µM | SW-620 20.2 µM | DMS-114 > 64.3 µM | HT-29 35.3 µM | OVCAR-4 49.5 µM | KM-20L2 40.7 µM | SNB-78 > 100 µM | SK-MEL-2 > 100 µM | UACC-257 > 100 µM

CCOC(=O)/C(C#N)=C\Sc1ccccc1
inactive: SN12C 14 µM | MOLT-4 5.05 µM | UO-31 9.2 µM | SK-OV-3 36.6 µM | 786-0 15.3 µM | NCI-H23 28.3 µM | SR 4.71 µM | SK-MEL-28 14.7 µM | KM12 15.9 µM | A549 10.4 µM | SF-295 20 µM | SW-620 25.9 µM | DMS-114 13.6 µM | HT-29 26 µM | OVCAR-4 26.7 µM | KM-20L2 22.8 µM | SNB-78 28.1 µM | SK-MEL-2 25 µM | UACC-257 24.7 µM

COc1ccc2c(c1)[n+]([O-])c(-c1ccc(OC)c(OC)c1)c(N)[n+]2[O-]
inactive: SN12C 68.9 µM | MOLT-4 78.5 µM | UO-31 > 100 µM | SK-OV-3 > 100 µM | 786-0 > 100 µM | NCI-H23 21.2 µM | SK-MEL-28 25.4 µM | KM12 98.2 µM | A549 > 100 µM | SF-295 67.1 µM | SW-620 > 100 µM | DMS-114 34.1 µM | HT-29 52.1 µM | OVCAR-4 > 100 µM | KM-20L2 42 µM | SNB-78 95.3 µM | SK-MEL-2 92.3 µM | UACC-257 31 µM

C[Si](C)(C)/C=C\CCCN1C(=O)CCC1=O
inactive: SN12C > 100 µM | MOLT-4 > 100 µM | UO-31 > 100 µM | SK-OV-3 > 100 µM | 786-0 > 100 µM | NCI-H23 > 100 µM | SR > 100 µM | SK-MEL-28 > 100 µM | KM12 > 100 µM | A549 > 100 µM | SF-295 > 100 µM | SW-620 > 100 µM | DMS-114 71.1 µM | HT-29 > 100 µM | KM-20L2 > 100 µM | SNB-78 > 100 µM | SK-MEL-2 > 100 µM | UACC-257 > 100 µM

Cc1cc(O)nc(NNC(C#N)c2ccc(N(C)C)cc2)n1 (centres undefined)
inactive: SN12C > 100 µM | UO-31 > 100 µM | SK-OV-3 > 100 µM | 786-0 > 100 µM | NCI-H23 > 100 µM | SR 92.9 µM | SK-MEL-28 > 100 µM | KM12 > 100 µM | A549 > 100 µM | SF-295 > 100 µM | SW-620 > 100 µM | DMS-114 > 100 µM | HT-29 > 100 µM | OVCAR-4 > 100 µM | KM-20L2 > 100 µM | SNB-78 > 100 µM | SK-MEL-2 > 100 µM | UACC-257 > 100 µM

CC1CC(=O)C(CC(=O)O)C1C(C(=O)C(=O)Nc1c(C#N)cccc1[N+](=O)[O-])[N+](=O)[O-] (centres undefined)
inactive: MOLT-4 > 100 µM | UO-31 57.3 µM | SK-OV-3 > 100 µM | 786-0 > 100 µM | NCI-H23 > 100 µM | SR > 100 µM | SK-MEL-28 > 100 µM | KM12 > 100 µM | A549 > 100 µM | SF-295 > 100 µM | SW-620 > 100 µM | DMS-114 > 100 µM | HT-29 > 100 µM | OVCAR-4 > 100 µM | KM-20L2 > 100 µM | SNB-78 80.4 µM | SK-MEL-2 > 100 µM | UACC-257 > 100 µM

O=C(CSSCC(=O)OCCS(=O)(=O)Nc1ccc(Br)cc1)OCCS(=O)(=O)Nc1ccc(Br)cc1
inactive: SN12C 18.7 µM | MOLT-4 3.11 µM | UO-31 28.6 µM | SK-OV-3 18.9 µM | 786-0 > 10 µM | NCI-H23 11.4 µM | SK-MEL-28 21.7 µM | KM12 13.3 µM | A549 19 µM | SF-295 12.2 µM | SW-620 8.45 µM | DMS-114 4.26 µM | HT-29 4.1 µM | OVCAR-4 8.75 µM | KM-20L2 22.9 µM | SNB-78 17.1 µM | SK-MEL-2 12.5 µM | UACC-257 9.46 µM

COC(=O)C(=O)C(C(=O)C(=O)Nc1ccc(OC)cc1[N+](=O)[O-])c1nc2ccc([N+](=O)[O-])cc2nc1O (centres undefined)
inactive: SN12C > 100 µM | MOLT-4 > 100 µM | UO-31 > 100 µM | SK-OV-3 > 100 µM | 786-0 > 100 µM | NCI-H23 > 100 µM | SR > 100 µM | KM12 > 100 µM | A549 > 100 µM | SF-295 > 100 µM | SW-620 > 100 µM | DMS-114 > 100 µM | HT-29 > 100 µM | OVCAR-4 > 100 µM | KM-20L2 > 100 µM | SNB-78 > 100 µM | UACC-257 > 100 µM

Cc1cc2c(c(C(=O)O)c1C)-c1cccc(F)c1C2=O
inactive: SN12C > 100 µM | MOLT-4 > 100 µM | UO-31 27 µM | SK-OV-3 > 100 µM | 786-0 > 100 µM | NCI-H23 > 100 µM | SK-MEL-28 > 100 µM | KM12 > 100 µM | A549 > 100 µM | SF-295 > 100 µM | SW-620 > 100 µM | DMS-114 > 100 µM | HT-29 > 100 µM | OVCAR-4 > 100 µM | KM-20L2 > 100 µM | SNB-78 > 100 µM | SK-MEL-2 > 100 µM | UACC-257 > 100 µM

C1CC[N+]23CCCC[N+]2(C1)CCCC3 (centres undefined)
inactive: SN12C > 100 µM | MOLT-4 > 100 µM | UO-31 > 100 µM | SK-OV-3 > 100 µM | 786-0 > 100 µM | NCI-H23 > 100 µM | SR > 100 µM | SK-MEL-28 > 100 µM | A549 > 100 µM | SF-295 > 100 µM | SW-620 > 100 µM | DMS-114 56.2 µM | HT-29 > 100 µM | OVCAR-4 > 100 µM | KM-20L2 > 100 µM | SNB-78 > 100 µM | SK-MEL-2 > 100 µM | UACC-257 > 100 µM

O=C(CC1(O)C(=O)Nc2ccc([N+](=O)[O-])cc21)c1ccncc1 (centres undefined)
inactive: SN12C 43.6 µM | MOLT-4 24.2 µM | UO-31 56.1 µM | SK-OV-3 > 100 µM | 786-0 69.7 µM | NCI-H23 22.1 µM | SK-MEL-28 32.3 µM | KM12 39 µM | A549 > 100 µM | SF-295 80.2 µM | SW-620 20.5 µM | DMS-114 30.5 µM | HT-29 34 µM | OVCAR-4 22.1 µM | KM-20L2 76.4 µM | SNB-78 47.2 µM | SK-MEL-2 85.1 µM | UACC-257 17.9 µM

CCCCN(CCCC)CC(C(=O)Nc1ccc([N+](=O)[O-])cc1[N+](=O)[O-])/C(C)=N\NC(=O)C[N+](C)(C)C (centres undefined)
inactive: SN12C > 100 µM | MOLT-4 > 100 µM | UO-31 66.5 µM | SK-OV-3 > 100 µM | 786-0 > 100 µM | NCI-H23 > 100 µM | SR 25.1 µM | SK-MEL-28 > 100 µM | KM12 > 100 µM | A549 > 100 µM | SF-295 > 100 µM | DMS-114 31.6 µM | HT-29 75.9 µM | OVCAR-4 > 100 µM | KM-20L2 > 100 µM | SNB-78 97.7 µM | SK-MEL-2 > 100 µM | UACC-257 > 100 µM

Cc1cc([N+](=O)[O-])ccc1NC(=O)C(=O)C(C(=O)c1ccccc1-c1ccccc1)C1OC(=O)c2ccccc21 (centres undefined)
inactive: SN12C 15.8 µM | MOLT-4 15.6 µM | UO-31 16.6 µM | SK-OV-3 22.7 µM | 786-0 16.1 µM | NCI-H23 25.6 µM | SR 16.4 µM | SK-MEL-28 14.8 µM | KM12 15 µM | A549 10.8 µM | SF-295 19.2 µM | SW-620 18 µM | DMS-114 13.1 µM | HT-29 18.8 µM | OVCAR-4 26.2 µM | KM-20L2 3.48 µM | SNB-78 17.9 µM | SK-MEL-2 12.6 µM | UACC-257 25.4 µM

CN(CCO)c1nc2c(c(=O)[nH]1)CNCC2
inactive: SN12C > 100 µM | MOLT-4 > 100 µM | UO-31 > 100 µM | SK-OV-3 > 100 µM | 786-0 > 100 µM | NCI-H23 > 100 µM | SR > 100 µM | SK-MEL-28 > 100 µM | KM12 > 100 µM | A549 > 100 µM | SF-295 > 100 µM | SW-620 > 100 µM | DMS-114 > 100 µM | HT-29 > 100 µM | OVCAR-4 > 100 µM | KM-20L2 > 100 µM | SNB-78 > 100 µM | SK-MEL-2 > 100 µM | UACC-257 > 100 µM

Cc1ccccc1-n1c(=O)sc2c(=O)n(-c3ccccc3)c(=S)[nH]c21
inactive: SN12C > 100 µM | MOLT-4 > 100 µM | UO-31 > 100 µM | SK-OV-3 > 100 µM | 786-0 > 100 µM | NCI-H23 > 100 µM | SR > 100 µM | SK-MEL-28 > 100 µM | KM12 > 100 µM | A549 > 100 µM | SF-295 > 100 µM | SW-620 > 100 µM | DMS-114 56.2 µM | HT-29 > 100 µM | OVCAR-4 > 100 µM | KM-20L2 > 100 µM | SNB-78 > 100 µM | SK-MEL-2 > 100 µM | UACC-257 > 100 µM
